Experimental data published in ChEMBL document CHEMBL3351479, “Novel acylureidoindolin-2-one derivatives as dual Aurora B/FLT3 inhibitors for the treatment of acute myeloid leukemia” (Eur J Med Chem, 2014).
The source made the active and inactive calls. No cut-off for these calls is given here.

Experiments:
A549 = assay: Induction of apoptosis in human A549 cells assessed as caspase 8 activation after 24 hrs; format: functional, cell-based
THP-1 [1] = assay: Induction of apoptosis in human THP1 cells assessed as caspase 8 activation after 24 hrs; format: functional, cell-based
[2] = target: Rho-associated protein kinase 1 (Homo sapiens) (UniProt Q13464); assay: Inhibition of ROCK1 (unknown origin) at 1 uM
Chain of Rho-associated protein kinase 1 (Homo sapiens) (Q13464 2-1354 limits assumed): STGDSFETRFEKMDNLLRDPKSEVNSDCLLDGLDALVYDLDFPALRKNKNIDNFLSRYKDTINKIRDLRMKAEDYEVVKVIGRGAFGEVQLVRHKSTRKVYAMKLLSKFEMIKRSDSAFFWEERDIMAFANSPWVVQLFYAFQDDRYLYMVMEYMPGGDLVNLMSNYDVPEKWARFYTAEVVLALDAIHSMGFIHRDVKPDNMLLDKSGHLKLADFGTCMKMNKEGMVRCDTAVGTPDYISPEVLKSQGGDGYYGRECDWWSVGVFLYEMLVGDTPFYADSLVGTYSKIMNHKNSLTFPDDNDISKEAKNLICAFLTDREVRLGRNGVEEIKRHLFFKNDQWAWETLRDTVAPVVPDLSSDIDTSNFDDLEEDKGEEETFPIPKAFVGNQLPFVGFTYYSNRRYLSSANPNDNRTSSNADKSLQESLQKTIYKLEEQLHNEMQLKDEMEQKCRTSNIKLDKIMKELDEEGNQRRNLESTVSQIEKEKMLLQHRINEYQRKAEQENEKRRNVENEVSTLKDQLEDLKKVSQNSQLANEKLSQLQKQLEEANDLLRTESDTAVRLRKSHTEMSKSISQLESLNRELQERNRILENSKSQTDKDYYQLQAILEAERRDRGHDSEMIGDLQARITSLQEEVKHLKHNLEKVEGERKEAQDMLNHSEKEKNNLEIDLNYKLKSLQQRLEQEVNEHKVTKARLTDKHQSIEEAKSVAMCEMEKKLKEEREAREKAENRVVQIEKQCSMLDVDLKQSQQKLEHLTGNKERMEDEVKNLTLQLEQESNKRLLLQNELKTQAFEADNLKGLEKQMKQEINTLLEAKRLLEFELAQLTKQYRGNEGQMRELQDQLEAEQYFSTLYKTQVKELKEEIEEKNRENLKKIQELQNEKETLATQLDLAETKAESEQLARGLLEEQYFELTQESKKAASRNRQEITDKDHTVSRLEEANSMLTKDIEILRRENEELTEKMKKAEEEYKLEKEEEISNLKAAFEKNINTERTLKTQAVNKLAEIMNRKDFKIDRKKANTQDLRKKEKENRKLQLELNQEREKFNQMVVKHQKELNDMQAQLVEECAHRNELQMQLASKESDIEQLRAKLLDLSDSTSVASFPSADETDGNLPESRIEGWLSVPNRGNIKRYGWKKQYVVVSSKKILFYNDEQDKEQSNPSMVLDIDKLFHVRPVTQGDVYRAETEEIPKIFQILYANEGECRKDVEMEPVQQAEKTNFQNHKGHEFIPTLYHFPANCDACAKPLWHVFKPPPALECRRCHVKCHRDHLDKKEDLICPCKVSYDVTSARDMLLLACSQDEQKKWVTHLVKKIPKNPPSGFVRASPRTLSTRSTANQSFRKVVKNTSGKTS

[3] = target: T1, Tyrosine-protein kinase Lck (Homo sapiens, UniProt P06239); settings: 1 uM
Description: Inhibition of Lck (unknown origin) at 1 uM

[4] = target: Serine/threonine-protein kinase PLK1 (Homo sapiens) (UniProt P53350); assay: Inhibition of Plk1 (unknown origin) at 1 uM
[5] = target: Fibroblast growth factor receptor 1 (Homo sapiens) (UniProt P11362); assay: Inhibition of FGFR1 (unknown origin) at 1 uM
[6] = target: Receptor-type tyrosine-protein kinase FLT3 (Homo sapiens) (UniProt P36888); assay: Inhibition of Aurora B/FLT3 in human MOLM13 cells assessed as inhibition of STAT5 phosphorylation after 4 hrs by Dot-blot analysis; format: cell-based; settings: MOLM-13
Chain of Receptor-type tyrosine-protein kinase FLT3 (Homo sapiens) (P36888 whole entry): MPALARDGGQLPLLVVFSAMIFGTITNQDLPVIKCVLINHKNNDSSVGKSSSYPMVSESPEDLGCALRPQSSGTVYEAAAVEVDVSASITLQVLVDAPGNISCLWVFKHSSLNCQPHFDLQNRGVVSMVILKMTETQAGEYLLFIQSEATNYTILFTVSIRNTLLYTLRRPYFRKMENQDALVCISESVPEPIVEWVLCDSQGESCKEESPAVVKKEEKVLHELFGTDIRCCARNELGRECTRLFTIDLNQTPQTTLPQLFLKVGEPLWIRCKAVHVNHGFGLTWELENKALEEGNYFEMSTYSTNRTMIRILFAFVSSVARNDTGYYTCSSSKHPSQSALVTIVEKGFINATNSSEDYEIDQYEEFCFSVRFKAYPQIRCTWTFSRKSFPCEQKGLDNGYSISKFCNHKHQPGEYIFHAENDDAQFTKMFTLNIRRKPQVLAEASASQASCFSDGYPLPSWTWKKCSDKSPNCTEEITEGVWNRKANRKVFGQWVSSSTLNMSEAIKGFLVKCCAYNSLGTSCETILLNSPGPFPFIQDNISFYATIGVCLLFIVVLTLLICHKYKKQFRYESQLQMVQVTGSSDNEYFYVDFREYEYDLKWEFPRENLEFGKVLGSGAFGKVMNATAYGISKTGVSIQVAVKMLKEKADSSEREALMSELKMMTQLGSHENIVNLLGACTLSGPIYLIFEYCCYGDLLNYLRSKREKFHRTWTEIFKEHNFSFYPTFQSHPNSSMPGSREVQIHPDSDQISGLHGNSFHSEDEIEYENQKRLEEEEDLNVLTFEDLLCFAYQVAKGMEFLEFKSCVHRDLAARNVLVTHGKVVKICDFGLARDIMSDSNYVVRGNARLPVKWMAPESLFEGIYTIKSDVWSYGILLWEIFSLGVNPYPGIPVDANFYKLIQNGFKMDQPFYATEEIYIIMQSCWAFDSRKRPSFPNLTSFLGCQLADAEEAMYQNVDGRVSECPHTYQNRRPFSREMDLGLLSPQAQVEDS

[7] = target: Proto-oncogene tyrosine-protein kinase Src (Homo sapiens) (UniProt P12931); assay: Inhibition of c-Src (unknown origin) at 1 uM
[8] = target: Serine/threonine-protein kinase mTOR (Homo sapiens) (UniProt P42345); assay: Inhibition of mTOR/FRAP1 (unknown origin) at 1 uM
[9] = target: Vascular endothelial growth factor receptor 2 (Homo sapiens) (UniProt P35968); assay: Inhibition of KDR/VEGFR2 (unknown origin) at 1 uM
[10] = target: Mitogen-activated protein kinase 9 (Homo sapiens) (UniProt P45984); assay: Inhibition of JNK2 (unknown origin) at 1 uM
[11] = target: Platelet-derived growth factor receptor beta (Homo sapiens) (UniProt P09619); assay: Inhibition of PDGFRbeta (unknown origin) at 1 uM
[12] = target: Epidermal growth factor receptor (Homo sapiens) (UniProt P00533); assay: Inhibition of EGFR (unknown origin) at 1 uM
Chain of Epidermal growth factor receptor (Homo sapiens) (P00533 whole entry): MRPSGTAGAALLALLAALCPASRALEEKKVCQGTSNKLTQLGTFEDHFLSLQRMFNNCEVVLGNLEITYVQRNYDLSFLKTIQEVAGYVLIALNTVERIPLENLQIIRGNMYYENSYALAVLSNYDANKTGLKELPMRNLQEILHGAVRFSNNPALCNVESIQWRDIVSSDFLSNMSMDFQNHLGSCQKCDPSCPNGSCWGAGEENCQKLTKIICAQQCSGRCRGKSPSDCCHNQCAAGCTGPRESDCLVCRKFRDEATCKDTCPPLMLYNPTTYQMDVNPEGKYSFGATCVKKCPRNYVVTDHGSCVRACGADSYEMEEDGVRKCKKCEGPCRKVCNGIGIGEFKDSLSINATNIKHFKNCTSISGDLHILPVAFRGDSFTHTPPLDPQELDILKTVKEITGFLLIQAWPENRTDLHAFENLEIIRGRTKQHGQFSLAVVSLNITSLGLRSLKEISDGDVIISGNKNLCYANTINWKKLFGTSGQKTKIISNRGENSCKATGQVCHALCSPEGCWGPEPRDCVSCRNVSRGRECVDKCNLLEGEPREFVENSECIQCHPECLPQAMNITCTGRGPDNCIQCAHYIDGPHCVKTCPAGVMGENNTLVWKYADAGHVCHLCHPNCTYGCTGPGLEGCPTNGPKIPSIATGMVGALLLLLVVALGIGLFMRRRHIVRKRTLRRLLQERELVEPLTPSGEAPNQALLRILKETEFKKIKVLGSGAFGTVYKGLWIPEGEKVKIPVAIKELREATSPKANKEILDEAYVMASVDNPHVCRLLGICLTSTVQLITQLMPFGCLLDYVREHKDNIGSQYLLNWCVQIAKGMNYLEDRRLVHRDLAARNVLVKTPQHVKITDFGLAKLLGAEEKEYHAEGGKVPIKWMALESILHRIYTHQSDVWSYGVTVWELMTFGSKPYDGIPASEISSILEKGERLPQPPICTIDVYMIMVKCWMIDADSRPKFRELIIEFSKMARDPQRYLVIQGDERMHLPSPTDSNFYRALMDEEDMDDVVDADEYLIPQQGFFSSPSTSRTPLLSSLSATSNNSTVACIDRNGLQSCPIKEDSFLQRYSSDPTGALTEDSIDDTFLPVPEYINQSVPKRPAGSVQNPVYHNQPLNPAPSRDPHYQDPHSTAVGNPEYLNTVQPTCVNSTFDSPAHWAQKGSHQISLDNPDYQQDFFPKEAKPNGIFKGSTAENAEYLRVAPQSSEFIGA

[13] = target: Receptor tyrosine-protein kinase erbB-2 (Homo sapiens) (UniProt P04626); assay: Inhibition of ERBB2/Her2 (unknown origin) at 1 uM
[14] = target: Serine/threonine-protein kinase B-raf (Homo sapiens) (UniProt P15056); assay: Inhibition of BRAF (unknown origin) at 1 uM
[15] = target: Aurora kinase A (Homo sapiens) (UniProt O14965); assay: Inhibition of Aurora A (unknown origin) at 1 uM
[16] = target: RAC-alpha serine/threonine-protein kinase (Homo sapiens) (UniProt P31749); assay: Inhibition of AKT1 (unknown origin) at 1 uM
Chain of RAC-alpha serine/threonine-protein kinase (Homo sapiens) (P31749 whole entry): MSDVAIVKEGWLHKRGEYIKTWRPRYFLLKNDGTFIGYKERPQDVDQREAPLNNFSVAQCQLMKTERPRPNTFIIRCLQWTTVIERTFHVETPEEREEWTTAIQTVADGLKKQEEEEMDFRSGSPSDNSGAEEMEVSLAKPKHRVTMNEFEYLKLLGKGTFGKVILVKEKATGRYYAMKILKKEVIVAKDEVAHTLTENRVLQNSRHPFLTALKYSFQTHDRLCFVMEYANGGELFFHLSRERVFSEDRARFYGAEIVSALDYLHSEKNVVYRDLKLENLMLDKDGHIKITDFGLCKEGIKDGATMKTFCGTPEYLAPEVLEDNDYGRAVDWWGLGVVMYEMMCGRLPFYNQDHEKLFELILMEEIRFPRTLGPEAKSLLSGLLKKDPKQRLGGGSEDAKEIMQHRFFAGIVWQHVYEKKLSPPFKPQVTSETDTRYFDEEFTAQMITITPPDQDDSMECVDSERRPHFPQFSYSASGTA

[17] = target: Platelet-derived growth factor receptor alpha (Homo sapiens) (UniProt P16234); assay: Inhibition of PDGFRalpha (unknown origin) at 1 uM
[18] = target: Tyrosine-protein kinase Lyn (Homo sapiens) (UniProt P07948); assay: Inhibition of Lyn (unknown origin) at 1 uM
Chain of Tyrosine-protein kinase Lyn (Homo sapiens) (P07948 2-512 limits assumed): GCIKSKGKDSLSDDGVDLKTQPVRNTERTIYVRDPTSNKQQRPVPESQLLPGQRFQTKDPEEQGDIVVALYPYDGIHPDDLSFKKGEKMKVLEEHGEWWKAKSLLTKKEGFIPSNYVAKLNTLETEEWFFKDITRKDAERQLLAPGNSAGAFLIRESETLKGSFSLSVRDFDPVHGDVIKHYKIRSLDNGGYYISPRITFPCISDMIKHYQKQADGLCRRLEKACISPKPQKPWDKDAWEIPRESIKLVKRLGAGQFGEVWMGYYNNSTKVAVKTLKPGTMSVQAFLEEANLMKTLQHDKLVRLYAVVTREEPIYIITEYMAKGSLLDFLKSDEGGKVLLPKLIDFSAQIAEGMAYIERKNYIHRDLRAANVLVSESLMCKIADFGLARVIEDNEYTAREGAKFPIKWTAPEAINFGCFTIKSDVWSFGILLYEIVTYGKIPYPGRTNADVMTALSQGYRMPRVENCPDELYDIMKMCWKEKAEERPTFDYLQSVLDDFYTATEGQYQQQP

MOLM-13 [19] = assay: Induction of apoptosis in human MOLM13 cells assessed as increase in FasL level up to 20 uM; format: functional, cell-based
THP-1 [20] = assay: Induction of apoptosis in human THP1 cells assessed as caspase 3 activation after 24 hrs; format: functional, cell-based
MOLM-13 [21] = assay: Induction of apoptosis in human MOLM13 cells assessed as caspase 8 activation after 24 hrs; format: functional, cell-based
[22] = target: Aurora kinase C (Homo sapiens) (UniProt Q9UQB9); assay: Inhibition of Aurora C (unknown origin) at 1 uM
[23] = target: Serine/threonine-protein kinase Chk1 (Homo sapiens) (UniProt O14757); assay: Inhibition of CHK1 (unknown origin) at 1 uM
[24] = target: Insulin-like growth factor 1 receptor (Homo sapiens) (UniProt P08069); assay: Inhibition of IGF1R (unknown origin) at 1 uM
[25] = target: Tyrosine-protein kinase JAK2 (Homo sapiens) (UniProt O60674); assay: Inhibition of JAK2 (unknown origin) at 1 uM
[26] = target: Angiopoietin-1 receptor (Homo sapiens) (UniProt Q02763); assay: Inhibition of TEK/Tie-2 (unknown origin) at 1 uM
MOLM-13 [27] = assay: Antitumor activity against human MOLM13 cells xenografted in ip dosed BALB/c AnN.Cg-Foxnlnu/CrlNarl mouse assessed as reduction in tumor growth treated once daily for 16 days; format: functional, organism-based
[28] = target: Receptor-type tyrosine-protein kinase FLT3 (Homo sapiens) (UniProt P36888); assay: Inhibition of Aurora B/FLT3 in human MOLM13 cells assessed as inhibition of HH3 phosphorylation after 4 hrs by Dot-blot analysis; format: cell-based; settings: MOLM-13
MOLM-13 [29] = assay: Induction of apoptosis in human MOLM13 cells assessed as caspase 3 activation after 24 hrs; format: functional, cell-based
[30] = target: Hepatocyte growth factor receptor (Homo sapiens) (UniProt P08581); assay: Inhibition of c-Met (unknown origin) at 1 uM
[31] = target: Tyrosine-protein kinase ABL1 (Homo sapiens) (UniProt P00519); assay: Inhibition of ABL1 (unknown origin) at 1 uM
[32] = target: Dual specificity mitogen-activated protein kinase kinase 1 (Homo sapiens) (UniProt Q02750); assay: Inhibition of MEK1/MAP2K1 (unknown origin) at 1 uM
[33] = target: Voltage-gated inwardly rectifying potassium channel KCNH2 (Homo sapiens, UniProt Q12809); assay: Inhibition of human ERG channel after 3 hrs by fluorescence assay
Mus musculus = assay: Toxicity in BALB/c AnN.Cg-Foxnlnu/CrlNarl mouse xenografted with human MOLM13 cells assessed as body weight loss at 10 mg/kg, ip administered qd for 16 days; format: organism-based, MOLM-13; design: dose 10 mg/kg, route intraperitoneal; settings: in vivo, 384 h
[34] = Half life in BALB/c mouse at 10 mg/kg, po; format: ADME, organism-based; design: dose 10 mg/kg, route oral; settings: in vivo
[35] = Cytotoxicity against human HL60 cells assessed as cell viability after 48 hrs by MTT assay; format: functional, cell-based; settings: HL-60, 48 h
[36] = AUC (0 to 24 hrs) in BALB/c mouse at 10 mg/kg, po; format: ADME, organism-based; design: time < 24 hr, dose 10 mg/kg, route oral; settings: plasma
[37] = Cmax in BALB/c mouse at 10 mg/kg, po; format: ADME, organism-based; design: dose 10 mg/kg, route oral; settings: in vivo
Cytochrome P450 2D6 = Cytochrome P450 2D6 (Homo sapiens, UniProt P10635); assay: Inhibition of CYP2D6 (unknown origin) using 3-cyano-7-ethoxycoumarin substrate; format: ADME
Cytochrome P450 2C9 = Cytochrome P450 2C9 (Homo sapiens, UniProt P11712); assay: Inhibition of CYP2C9 (unknown origin) using Vivid OOMR substrate; format: ADME
Chain of Cytochrome P450 2C9 (P11712 whole entry): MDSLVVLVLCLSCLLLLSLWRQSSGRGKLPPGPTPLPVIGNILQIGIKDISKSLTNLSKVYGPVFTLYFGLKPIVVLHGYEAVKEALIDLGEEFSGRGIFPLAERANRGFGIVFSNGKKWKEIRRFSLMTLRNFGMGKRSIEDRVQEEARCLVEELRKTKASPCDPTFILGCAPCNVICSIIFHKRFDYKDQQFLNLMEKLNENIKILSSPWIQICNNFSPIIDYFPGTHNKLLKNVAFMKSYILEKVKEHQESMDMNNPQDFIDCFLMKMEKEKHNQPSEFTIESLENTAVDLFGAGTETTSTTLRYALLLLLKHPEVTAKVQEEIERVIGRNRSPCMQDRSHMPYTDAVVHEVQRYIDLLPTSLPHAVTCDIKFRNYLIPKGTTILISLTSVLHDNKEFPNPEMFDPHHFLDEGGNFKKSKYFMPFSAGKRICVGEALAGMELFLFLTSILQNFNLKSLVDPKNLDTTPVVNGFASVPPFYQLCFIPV

[38] = Cmax in BALB/c mouse at 2 mg/kg, iv; format: ADME, organism-based; design: dose 2 mg/kg, route intravenous; settings: in vivo
[39] = Volume of distribution at steady state in BALB/c mouse at 2 mg/kg, iv; format: ADME, organism-based; design: dose 2 mg/kg, route intravenous; settings: in vivo, read-out: Vdss
[40] = Half life in BALB/c mouse at 2 mg/kg, iv; format: ADME, organism-based; design: dose 2 mg/kg, route intravenous; settings: in vivo
THP-1 [41] = assay: Cytotoxicity against human THP1 cells assessed as cell viability after 48 hrs by MTT assay; format: functional, cell-based; settings: Homo sapiens, THP-1, 48 h
Vero = assay: Cytotoxicity against african green monkey Vero cells at 10 uM after 48 hrs by MTT assay; format: cell-based; settings: chlorocebus sabaeus
MOLM-13 [42] = assay: Antitumor activity against human MOLM13 cells xenografted in BALB/cAnN.Cg-Foxnlnu/CrlNarl mouse assessed as reduction in tumor mass at 10 mg/kg, ip once daily for 16 days; format: functional; settings: MOLM-13, ip, 384 h, route intraperitoneal
[43] = target: T1, Tyrosine-protein kinase Lck; assay: Inhibition of Lck (unknown origin)
[44] = AUC (0 to 24 hrs) in BALB/c mouse at 2 mg/kg, iv; format: ADME, organism-based; design: time < 24 hr, dose 2 mg/kg, route intravenous; settings: plasma
[45] = Tmax in BALB/c mouse at 10 mg/kg, po; format: ADME, organism-based; design: dose 10 mg/kg, route oral; settings: in vivo
Cytochrome P450 2C19 = Cytochrome P450 2C19 (Homo sapiens, UniProt P33261); assay: Inhibition of CYP2C19 (unknown origin) using 3-cyano-7-ethoxycoumarin substrate; format: ADME
[46] = target: Cytochrome P450 1A2 (Homo sapiens) (UniProt P05177); assay: Inhibition of CYP1A2 (unknown origin) using 3-cyano-7-ethoxycoumarin substrate
[47] = Tmax in BALB/c mouse at 2 mg/kg, iv; format: ADME, organism-based; design: dose 2 mg/kg, route intravenous; settings: in vivo
[48] = Permeability coefficient of the compound at pH 7.4 by PAMPA-GIT assay; format: ADME; settings: read-out: Peff
[49] = Ratio of solubility in PBS to solubility in DMSO; format: physicochemical
[50] = target: Mast/stem cell growth factor receptor Kit (Homo sapiens, UniProt P10721); assay: Inhibition of c-Kit (unknown origin)
MOLM-13 [51] = assay: Cytotoxicity against human MOLM13 cells assessed as cell viability after 48 hrs by MTT assay; format: functional, cell-based; settings: MOLM-13, 48 h
[52] = Therapeutic index, ratio of LD50 for BALB/c AnN.Cg-Foxnlnu/CrlNarl mouse to ED50 for antitumor activity against human MOLM13 cells xenografted in BALB/c AnN.Cg-Foxnlnu/CrlNarl mouse; format: cell-based, MOLM-13; settings: in vivo, read-out: Ratio LD50/ED50
[53] = Clearance in BALB/c mouse at 2 mg/kg, iv; format: ADME, organism-based; design: dose 2 mg/kg, route intravenous; settings: in vivo
Cytochrome P450 3A4 = Cytochrome P450 3A4 (Homo sapiens, UniProt P08684); assay: Inhibition of CYP3A4 (unknown origin) using Vivid OOMR substrate; format: ADME
[54] = Toxicity in BALB/c AnN.Cg-Foxnlnu/CrlNarl mouse xenografted with human MOLM13 cells at 10 mg/kg, ip administered qd for 16 days; format: organism-based, MOLM-13; design: dose 10 mg/kg, route intraperitoneal; settings: in vivo
[55] = Oral bioavailability in BALB/c mouse at 10 mg/kg; format: ADME, organism-based; settings: in vivo
MOLM-13 [56] = assay: Antitumor activity against human MOLM13 cells xenografted in BALB/c AnN.Cg-Foxnlnu/CrlNarl mouse assessed as reduction in tumor growth at 10 mg/kg, ip once daily for 16 days; format: functional; settings: MOLM-13, ip, 384 h, route intraperitoneal
MV4-11 = assay: Cytotoxicity against human MV4-11 cells assessed as cell viability after 48 hrs by MTT assay; format: functional, cell-based; settings: Homo sapiens, MV4-11, 48 h

COc1ccc(C(=O)NC(=O)Nc2ccc3c(c2)NC(=O)/C3=C\c2[nH]c(C)c(C(=O)NCCN3CCCC3)c2C)c(F)c1 [listing 1 of 2 here]
Activity (A549): Dose-dependent effect
Activity (THP-1 [1]): Dose-dependent effect
inhibition [2]: 55%
inhibition [3]: 97%
inhibition [4]: 13%
inhibition [5]: 23%
inhibition [6]: Dose-dependent effect
inhibition [7]: 20%
inhibition [8]: inactive
inhibition [9]: 20%
inhibition [10]: 32%
inhibition [11]: 74%
inhibition [12]: inactive
inhibition [13]: 2%
inhibition [14]: inactive
inhibition [15]: 21%
inhibition [16]: 40%
inhibition [17]: 57%
inhibition [18]: 62%
Activity (MOLM-13 [19]): Active
Activity (THP-1 [20]): Dose-dependent effect
Activity (MOLM-13 [21]): Dose-dependent effect
inhibition [22]: 20%
inhibition [23]: 18%
inhibition [24]: 10%
inhibition [25]: inactive
inhibition [26]: 32%
inhibition (MOLM-13 [27]): Dose-dependent effect
inhibition [28]: Dose-dependent effect
Activity (MOLM-13 [29]): Dose-dependent effect
inhibition [30]: 40%
inhibition [31]: 65%
inhibition [32]: 38%

COc1ccc(C(=O)NC(=O)Nc2ccc3c(c2)NC(=O)/C3=C\c2[nH]c(C)c(C(=O)NCCN3CCCC3)c2C)c(F)c1 [listing 2 of 2 here]
IC50 [33]: 9670 nM
Activity (Mus musculus): Non-toxic
half-life [34]: 8.6 h
IC50 [35]: 2.8 nM
AUC(0-t) at 24 h [36]: 252 ng·h/mL
Cmax [37]: 20.9 ng/mL
IC50 (Cytochrome P450 2D6): > 10000 nM
IC50 (Cytochrome P450 2C9): > 10000 nM
Cmax [38]: 654 ng/mL
Vd [39]: 22.2 L/kg
half-life [40]: 27.6 h
IC50 (THP-1 [41]): 48.9 nM
Activity (Vero): Non-toxic
inhibition in vivo at 10 mg/kg (MOLM-13 [42]): 95%
IC50 [43]: 2.3 nM
AUC(0-t) at 24 h [44]: 1960 ng·h/mL
Tmax [45]: 1.7 h
IC50 (Cytochrome P450 2C19): > 10000 nM
IC50 [46]: > 10000 nM
Tmax [47]: 6 min
Papp [48]: 1.78 ×10⁻⁶ cm/s
Ratio [49]: 0.36
IC50 [50]: 14 nM
IC50 (MOLM-13 [51]): 0.7 nM
selectivity ratio [52]: > 10
clearance [53]: 8.33 mL/min/kg
IC50 (Cytochrome P450 3A4): > 10000 nM
LD50 at 384 h [54]: > 20 mg/kg
bioavailability [55]: 2.6%
inhibition in vivo at 10 mg/kg (MOLM-13 [56]): > 90%
IC50 (MV4-11): 2.4 nM
